Source: ChEMBL document CHEMBL1136146, “Pyrimidinone antibiotics--heterocyclic analogues with improved antibacterial spectrum” (Bioorg Med Chem Lett, 2003)

Experiments:
[1] = test system: Staphylococcus aureus; experiment: In vitro minimum inhibitory concentration against Staphylococcus aureus 133.; format: functional
[2] = test system: Escherichia coli; experiment: Inhibitory activity tested against procaryotic translation in Escherichia coli S30 Extract System; format: functional, organism-based
[3] = test system: Enterococcus faecium; experiment: Antibacterial activity against Enterococcus faecium L 4001 was determined; format: functional
[4] = test system: Enterococcus faecium; experiment: Antibacterial activity against Enterococcus faecium 18531 was determined; format: functional
[5] = organism: Oryctolagus cuniculus; experiment: Inhibitory activity tested against eucaryotic translation in Rabbit Reticulocyte Lysate System L 4540; format: functional
[6] = Antibacterial activity against […] pneumoniae 1707/4 was determined; format: functional
[7] = Antibacterial activity against […] pneumoniae G9a was determined; format: functional
[8] = test system: Staphylococcus aureus; experiment: Antibacterial activity against Staphylococcus aureus 133 was determined; format: functional
[9] = test system: Staphylococcus epidermidis; experiment: Antibacterial activity against Staphylococcus epidermidis 18570 was determined; format: functional
[10] = In vitro selectivity index was measured as IC50 eucaryotic translation/procaryotic translation; format: functional

SMILES	MIC [1]	IC50 [2]	IC50 [5]	also measured
CC(=O)O.CN(C(=O)C[C@@H](N)CCCCN)C1CN=C(Nc2ccccc2)NC1=O (stereo partly drawn)	100 µg/mL			
CC(=O)O.CN(C1=NCC(N(C)C(=O)C[C@@H](N)CCCCN)C(=O)N1)c1ccccn1 (stereo partly drawn)	> 100 µg/mL			
CN(C(=O)C[C@@H](N)c1cc(CN)on1)C1CN=C(NC(N)=O)NC1=O.Cl.Cl (stereo partly drawn)	> 100 µg/mL	> 64000 nM		
CC(=O)O.CN(C(=O)C[C@@H](N)CCCN=C(N)N)C1CN=C(Nc2ccccn2)NC1=O (stereo partly drawn)	< 0.05 µg/mL		70 nM	MIC [3]: 2 µg/mL; MIC [4]: > 64 µg/mL; MIC [6]: 2 µg/mL; MIC [7]: 2 µg/mL; ED100 [8]: 1 mg/kg; MIC [8]: 0.5 µg/mL; MIC [9]: 0.25 µg/mL
CC(=O)O.CN(C(=O)C[C@@H](N)CCCCN)C1CN=C(Nc2cccnc2)NC1=O (stereo partly drawn)	50 µg/mL	> 64000 nM		
CN(C(=O)C[C@@H](N)CCCCN)C1CN=C(Nc2ncccn2)NC1=O.Cl.Cl (stereo partly drawn)	1.6 µg/mL	1000 nM	380 nM	Selectivity [10]: 0.38
CC(=O)O.CN(C(=O)C[C@@H](N)CCCCN)C1CN=C(Nc2ccccn2)NC1=O (stereo partly drawn)	0.2 µg/mL			
CN(C(=O)C[C@@H](N)CSCCN)C1CN=C(NC(N)=O)NC1=O.Cl.Cl (stereo partly drawn)	100 µg/mL			
CN(C(=O)C[C@@H](N)CCCN=C(N)N)C1CN=C(NC(N)=O)NC1=O.Cl.Cl (stereo partly drawn)	0.1 µg/mL	300 nM	170 nM	MIC [3]: 2 µg/mL; MIC [4]: > 16 µg/mL; MIC [6]: 32 µg/mL; MIC [7]: 16 µg/mL; ED100 [8]: 0.25 mg/kg; MIC [8]: 0.25 µg/mL; MIC [9]: 0.25 µg/mL; Selectivity [10]: 0.57
CN(C(=O)C[C@@H](N)CCCCN)C1CN=C(NC2=NCCCN2)NC1=O.Cl.Cl (stereo partly drawn)	> 100 µg/mL			
CN(C(=O)C[C@@H](N)c1csc(CN)n1)C1CN=C(NC(N)=O)NC1=O.O=S(=O)(O)C(F)(F)F (stereo partly drawn)	50 µg/mL	32000 nM		
CC(=O)O.CN(C(=O)C[C@@H](N)CCCCN)C1CN=C(Nc2ccc3ccccc3n2)NC1=O (stereo partly drawn)	6.3 µg/mL	50 nM	50 nM	Selectivity [10]: 1
CC(=O)O.CN(C(=O)C[C@@H](N)CCCN=C(N)N)C1CN=C(Nc2ccc3ccccc3n2)NC1=O (stereo partly drawn)	0.1 µg/mL	100 nM	100 nM	MIC [3]: 8 µg/mL; MIC [4]: > 16 µg/mL; MIC [6]: 8 µg/mL; MIC [8]: 0.5 µg/mL; MIC [9]: 0.25 µg/mL; Selectivity [10]: 1
CN(C(=O)C[C@@H](N)c1csc(CCN)n1)C1CN=C(NC(N)=O)NC1=O.O=S(=O)(O)C(F)(F)F (stereo partly drawn)	100 µg/mL	16000 nM		
Br.CN(C(=O)C[C@@H](N)CCCCN)C1CN=C(Nc2cnccn2)NC1=O (stereo partly drawn)	< 0.1 µg/mL	< 100 nM	< 100 nM	
Br.CN(C(=O)C[C@@H](N)CCCCN)C1CN=C(Nc2nc3ccccc3s2)NC1=O (stereo partly drawn)	25 µg/mL	3200 nM		
CN(C(=O)C[C@@H](N)CCCCN)C1CN=C(NC(N)=O)NC1=O.Cl.Cl (stereo partly drawn)	0.05 µg/mL	500 nM	2800 nM	Selectivity [10]: 5.3
Br.CN(C(=O)C[C@@H](N)CCCN=C(N)N)C1CN=C(Nc2ncccn2)NC1=O (stereo partly drawn)	0.4 µg/mL	< 50 nM	100 nM	Selectivity [10]: > 2
CN(C(=O)C[C@@H](N)CS(=O)(=O)CCN)C1CN=C(NC(N)=O)NC1=O.Cl.Cl (stereo partly drawn)	> 100 µg/mL			
Br.Cc1csc(NC2=NCC(N(C)C(=O)C[C@@H](N)CCCCN)C(=O)N2)n1 (stereo partly drawn)	50 µg/mL	1000 nM		
CC(=O)O.CN(C(=O)C[C@@H](N)CCCCN)C1CN=C(Nc2nc3ccccc3[nH]2)NC1=O (stereo partly drawn)	50 µg/mL	1000 nM		
